Experimental data: patent US11498899B2, “Nitrone herbicides” (FMC Corporation, priority 2016, dated 2022)

What was measured:
[1] = system: barnyardgrass (Echinochloa crus-galli); test: Test B flooded paddy test, visual rating 0-100; conditions: Flood, 250 g ai/ha, applied to paddy water, rated after 13 to 15 days
rice (Oryza sativa) = test: Test B flooded paddy test, visual rating 0-100 (0 no effect, 100 complete control); conditions: Flood, 250 g ai/ha, applied to paddy water, rated after 13 to 15 days
[2] = system: ducksalad (Heteranthera limosa); test: Test B flooded paddy test, visual rating 0-100; conditions: Flood, 250 g ai/ha, applied to paddy water, rated after 13 to 15 days
[3] = system: ryegrass, Italian (Italian ryegrass, Lolium multiflorum); test: Test A postemergence, visual injury rating 0-100; assay type: in vivo; conditions: 0 to 100 scale
[4] = system: ragweed (common ragweed, Ambrosia elatior); test: Test A postemergence, visual injury rating 0-100; assay type: in vivo; conditions: 0 to 100 scale
[5] = system: galium (catchweed bedstraw, Galium aparine); test: Test A postemergence, visual injury rating 0-100; assay type: in vivo; conditions: 0 to 100 scale
kochia (Kochia scoparia) [6] = test: Test A postemergence, visual injury rating 0-100; assay type: in vivo; conditions: 0 to 100 scale
[7] = system: blackgrass (Alopecurus myosuroides); test: Test A postemergence, visual injury rating 0-100; assay type: in vivo; conditions: 0 to 100 scale
[8] = system: barnyardgrass (Echinochloa crus-galli); test: Test A postemergence, visual injury rating 0-100; assay type: in vivo; conditions: 0 to 100 scale
[9] = system: wheat (Triticum aestivum); test: Test A postemergence, visual injury rating 0-100; assay type: in vivo; conditions: 0 to 100 scale
[10] = system: foxtail, giant (giant foxtail, Setaria faberii); test: Test A postemergence, visual injury rating 0-100; assay type: in vivo; conditions: 0 to 100 scale
corn (Zea mays) = test: Test A postemergence, visual injury rating 0-100; assay type: in vivo; conditions: 0 to 100 scale
[11] = system: pigweed (Amaranthus retroflexus); test: Test A postemergence, visual injury rating 0-100; assay type: in vivo; conditions: 0 to 100 scale
[12] = system: ryegrass, Italian (Italian ryegrass, Lolium multiflorum); test: Test A preemergence, visual injury rating 0-100; assay type: in vivo; conditions: 500 g ai/ha
[13] = system: ragweed (common ragweed, Ambrosia elatior); test: Test A preemergence, visual injury rating 0-100; assay type: in vivo
kochia (Kochia scoparia) [14] = test: Test A preemergence, visual injury rating 0-100; assay type: in vivo
[15] = system: foxtail, giant (giant foxtail, Setaria faberii); test: Test A preemergence, visual injury rating 0-100; assay type: in vivo
[16] = system: pigweed (Amaranthus retroflexus); test: Test A preemergence, visual injury rating 0-100; assay type: in vivo
[17] = system: barnyardgrass (Echinochloa crus-galli); test: Test A preemergence, visual injury rating 0-100 (0 no effect, 100 complete control); assay type: in vivo

| Compound | Barnyardgrass plant response rating (0 to 100 scale) [1] | Rice plant response rating (0 to 100 scale) (rice (Oryza sativa)) | Ducksalad plant response rating (0 to 100 scale) [2] | Ryegrass, Italian plant response rating ([3]; 125 g ai/ha) | Ryegrass, Italian plant response rating ([3]; 500 g ai/ha) | Ragweed plant response rating ([4]; 125 g ai/ha) | Ragweed plant response rating ([4]; 500 g ai/ha) | Galium plant response rating ([5]; 125 g ai/ha) | Galium plant response rating ([5]; 500 g ai/ha) | Kochia plant response rating (kochia (Kochia scoparia) [6]; 125 g ai/ha) | Kochia plant response rating (kochia (Kochia scoparia) [6]; 500 g ai/ha) | Blackgrass plant response rating ([7]; 125 g ai/ha) | Blackgrass plant response rating ([7]; 500 g ai/ha) | Barnyardgrass plant response rating ([8]; 125 g ai/ha) | Barnyardgrass plant response rating ([8]; 500 g ai/ha) | Wheat plant response rating ([9]; 125 g ai/ha) | Wheat plant response rating ([9]; 500 g ai/ha) | Foxtail, Giant plant response rating ([10]; 125 g ai/ha) | Foxtail, Giant plant response rating ([10]; 500 g ai/ha) | Corn plant response rating (corn (Zea mays); 125 g ai/ha) | other results |
| --- | --- | --- | --- | --- | --- | --- | --- | --- | --- | --- | --- | --- | --- | --- | --- | --- | --- | --- | --- | --- | --- |
| CC1=[N+]([O-])C(C(=O)Nc2cccc(F)c2F)C(c2ccc(Cl)c(C(F)(F)F)c2)C1 (racemic) [Compound 104] | 40 | 0 | 40 | 20 | 70 | 20 | 70 | 30 | 70 | 50 | 70 | 70 | 70 | 60 | 80 | 10 | 50 | 20 | 80 | 70 | Corn plant response rating (corn (Zea mays); 500 g ai/ha): 60; Pigweed plant response rating ([11]; 125 g ai/ha): 30; Pigweed plant response rating ([11]; 500 g ai/ha): 70; Ryegrass, Italian plant response rating (0 to 100 scale) [12]: 90; Ragweed plant response rating (0 to 100 scale) ([13]; 125 g ai/ha): 20; Ragweed plant response rating (0 to 100 scale) ([13]; 500 g ai/ha): 60; Kochia plant response rating (0 to 100 scale) (kochia (Kochia scoparia) [14]; 125 g ai/ha): 30; Kochia plant response rating (0 to 100 scale) (kochia (Kochia scoparia) [14]; 500 g ai/ha): 70; Foxtail, Giant plant response rating (0 to 100 scale) ([15]; 125 g ai/ha): 90; Foxtail, Giant plant response rating (0 to 100 scale) ([15]; 500 g ai/ha): 90; Pigweed plant response rating (0 to 100 scale) ([16]; 125 g ai/ha): 10; Pigweed plant response rating (0 to 100 scale) ([16]; 500 g ai/ha): 80; Barnyardgrass plant response rating (0 to 100 scale) ([17]; 125 g ai/ha): 80; Barnyardgrass plant response rating (0 to 100 scale) ([17]; 500 g ai/ha): 90 |
| CC1=[N+]([O-])C(C(=O)Nc2cccc(F)c2F)C(c2cccc(C3OCCO3)c2)C1 (racemic) [Compound 105] | 0 | 0 | 0 | 0 | 40 | 0 | 40 | 30 | 40 | 0 | 0 | 20 | 60 | 30 | 80 | 0 | 30 | 10 | 30 | 0 | Corn plant response rating (corn (Zea mays); 500 g ai/ha): 40; Pigweed plant response rating ([11]; 125 g ai/ha): 0; Pigweed plant response rating ([11]; 500 g ai/ha): 0; Ryegrass, Italian plant response rating (0 to 100 scale) [12]: 80; Ragweed plant response rating (0 to 100 scale) ([13]; 125 g ai/ha): 0; Ragweed plant response rating (0 to 100 scale) ([13]; 500 g ai/ha): 0; Kochia plant response rating (0 to 100 scale) (kochia (Kochia scoparia) [14]; 125 g ai/ha): 0; Kochia plant response rating (0 to 100 scale) (kochia (Kochia scoparia) [14]; 500 g ai/ha): 60; Foxtail, Giant plant response rating (0 to 100 scale) ([15]; 125 g ai/ha): 60; Foxtail, Giant plant response rating (0 to 100 scale) ([15]; 500 g ai/ha): 90; Pigweed plant response rating (0 to 100 scale) ([16]; 125 g ai/ha): 0; Pigweed plant response rating (0 to 100 scale) ([16]; 500 g ai/ha): 0; Barnyardgrass plant response rating (0 to 100 scale) ([17]; 125 g ai/ha): 30; Barnyardgrass plant response rating (0 to 100 scale) ([17]; 500 g ai/ha): 90 |
| CC1=[N+]([O-])C(C(=O)Nc2cccc(F)c2F)C(c2cccc(C(F)(F)F)c2C)C1 (racemic) [Compound 106] | 60 | 0 | 70 | 70 | 70 | 30 | 70 | 40 | 70 | 0 | 30 | 80 | 70 | 70 | 90 | 40 | 70 | 80 | 90 | 60 | Corn plant response rating (corn (Zea mays); 500 g ai/ha): 90; Pigweed plant response rating ([11]; 125 g ai/ha): 0; Pigweed plant response rating ([11]; 500 g ai/ha): 20; Ryegrass, Italian plant response rating (0 to 100 scale) [12]: 90; Ragweed plant response rating (0 to 100 scale) ([13]; 125 g ai/ha): 0; Ragweed plant response rating (0 to 100 scale) ([13]; 500 g ai/ha): 40; Kochia plant response rating (0 to 100 scale) (kochia (Kochia scoparia) [14]; 125 g ai/ha): 0; Kochia plant response rating (0 to 100 scale) (kochia (Kochia scoparia) [14]; 500 g ai/ha): 70; Foxtail, Giant plant response rating (0 to 100 scale) ([15]; 125 g ai/ha): 90; Foxtail, Giant plant response rating (0 to 100 scale) ([15]; 500 g ai/ha): 100; Pigweed plant response rating (0 to 100 scale) ([16]; 125 g ai/ha): 0; Pigweed plant response rating (0 to 100 scale) ([16]; 500 g ai/ha): 60; Barnyardgrass plant response rating (0 to 100 scale) ([17]; 125 g ai/ha): 90; Barnyardgrass plant response rating (0 to 100 scale) ([17]; 500 g ai/ha): 90 |
| CC1=[N+]([O-])C(C(=O)Nc2cccc(F)c2F)C(c2ccc(Cl)c(F)c2)C1 (racemic) [Compound 107] | 40 | 0 | 70 | 10 | 70 | 30 | 60 | 70 | 70 | 20 | 20 | 70 | 70 | 70 | 90 | 10 | 60 | 60 | 90 | 30 | Corn plant response rating (corn (Zea mays); 500 g ai/ha): 80; Pigweed plant response rating ([11]; 125 g ai/ha): 0; Pigweed plant response rating ([11]; 500 g ai/ha): 30; Ryegrass, Italian plant response rating (0 to 100 scale) [12]: 80; Ragweed plant response rating (0 to 100 scale) ([13]; 125 g ai/ha): 0; Ragweed plant response rating (0 to 100 scale) ([13]; 500 g ai/ha): 50; Kochia plant response rating (0 to 100 scale) (kochia (Kochia scoparia) [14]; 125 g ai/ha): 0; Kochia plant response rating (0 to 100 scale) (kochia (Kochia scoparia) [14]; 500 g ai/ha): 90; Foxtail, Giant plant response rating (0 to 100 scale) ([15]; 125 g ai/ha): 90; Foxtail, Giant plant response rating (0 to 100 scale) ([15]; 500 g ai/ha): 90; Pigweed plant response rating (0 to 100 scale) ([16]; 125 g ai/ha): 0; Pigweed plant response rating (0 to 100 scale) ([16]; 500 g ai/ha): 80; Barnyardgrass plant response rating (0 to 100 scale) ([17]; 125 g ai/ha): 90; Barnyardgrass plant response rating (0 to 100 scale) ([17]; 500 g ai/ha): 90 |
